Test results from ChEMBL document CHEMBL3507680, “University of Dundee, Gates Library screen for HepG2 cell viability”.

Assay: Human HepG2 cell viability assay in 384 well format
Assay type: toxicity, cell-based
Set-up: dose 125 nL, time 70.5 hour; concentration not given beside the values
Details: HepG2 cells, read-out: Inhibition

| Structure (SMILES) | cytotoxicity at 70.5 h |
| --- | --- |
| COCCN1CCN(c2ccc(CN(C)C)cn2)CC1 | 16.1% |
| CC(C)OCc1noc(C2CC=CC2)n1 | -6.7% |
| O=C(c1cc(F)ccc1Br)N1CCN(C(=O)C2CC2)CC1 | 17.3% |
| O=C(c1ccc(=O)[nH]n1)N1CCC(CN2CCOCC2)CC1 | -9.25% |
| O=C(c1cnccn1)N1CCC(CN2CCOCC2)CC1 | -7.46% |
| CC(C)c1noc(C(C)S(=O)(=O)CC(=O)N2CCCC2)n1 (stereo not drawn) | 17.4% |
| Cc1cc(C2CCCN2S(=O)(=O)c2cnn(C)c2)on1 (stereo not drawn) | -6.62% |
| O=C(c1ccccc1O)N1CCN(C(=O)C2CCC2)CC1 | 16.4% |
| CCCNC(=O)C1CCN(CC(O)c2ccc(C(F)(F)F)cc2)CC1 (stereo not drawn) | -5.86% |
| CC(C(=O)N1CCCCCC1)N1CCN(c2nccs2)CC1 (stereo not drawn) | 19.7% |
| CC(C(=O)N1CCCCC1)N1CCN(c2nccs2)CC1 (stereo not drawn) | 2.12% |
| CS(=O)(=O)Cc1ccc(C(=O)Nc2ccc3c(c2)C(=O)NC3)cc1 | -6.71% |
| CN(C)Cc1ccc(N2CCN(CCOCC(F)(F)F)CC2)nc1 | 17.7% |
| CC(C)OCCN1CCN(c2ccc(Cl)cn2)CC1 | -6.76% |
| O=C1C(n2nnc(-c3cccs3)n2)CCN1CC(F)(F)F (stereo not drawn) | -7.6% |
| CCCOc1ccc(Cl)cc1C(=O)N1CCC(n2cncn2)CC1 | 17.2% |
| COc1ccc(C(NCc2cccc(C#N)c2)C2CC2)cc1 (stereo not drawn) | -2.12% |
| COC(=O)c1cccc(C(=O)N2CCN(C(=O)N(C)C)CC2(C)C)c1 | 16.9% |
| CN(C)C(=O)c1ccc(NCCNc2ccc3ccccc3n2)nc1 | 45.4% |
| Cc1cnn(CC(C)NCCc2cccs2)c1 (stereo not drawn) | 23.7% |
| CS(=O)(=O)NCCc1cccc2cccnc12 | 25.3% |
| Cc1cc(C(C)NC(=O)c2cnc3onc(C)c3c2)c(C)o1 (stereo not drawn) | -5.78% |
| COC(=O)c1cccc(S(=O)(=O)NC(=O)CC2CCCC2)c1 | 22.5% |
| CC(C)COCCCNC(=O)NC(C)c1ccc(-n2cncn2)cc1 (stereo not drawn) | -3.59% |

| Structure (SMILES) | cytotoxicity at 70.5 h |
| --- | --- |
| CC(C)C(Sc1ccccc1)C(=O)N(C)Cc1nnc2n1CCC2 (stereo not drawn) | 25.6% |
| CN(C)CC1CN(Cc2cc(Cl)cc3cccnc23)CCO1 (stereo not drawn) | -9.09% |
| CC(=O)c1cc(C(=O)NC2(c3ccc(Br)cc3)CC2)n(C)c1 | -3.42% |
| CN(C)CC1CN(Cc2c(Cl)ccc3cccnc23)CCO1 (stereo not drawn) | -4.72% |
| Cc1ccc(CN(C)C)cc1NC(=O)C1CC1 | -9.96% |
| CCc1cnc(N2CCN(Cc3ccncc3)CC2)s1 | -3.17% |
| COc1ccccc1CNCc1nn(-c2ccccc2)c2c1CCC2 | 0.28% |
| CC(=O)c1ccc(S(=O)(=O)N2CCC(c3n[nH]c(C)n3)CC2)cc1 | 24.3% |
| CS(=O)(=O)NCCCSCc1cccc2cccnc12 | -9.28% |
| Cc1ccc(C(=O)O)cc1NC(=O)C1CC=CC1 | 22.9% |
| Brc1ccc(C2(CNCc3cc[nH]c3)CCOCC2)cc1 | -0.56% |
| N#CCCCn1nnnc1Cc1ccc(Br)cc1 | -13.9% |
| Cc1cc(C)n(C2CN(Cc3ccccn3)C2)n1 | -9.82% |
| COCc1noc(CCC(=O)c2ccc3c(c2)OCCO3)n1 | -19.1% |
| Cc1csc(N2CCN(Cc3cnc4c(c3)c(C)nn4C)CC2)n1 | -24.9% |
| Cc1cc(CN2CCN(Cc3cnc4c(c3)c(C)nn4C)CC2)on1 | -6.72% |
| Cn1cc(NC(=O)Nc2ccc3c(c2)OCO3)cn1 | -8.14% |
| O=C(CCn1cncn1)NC1(c2cccc(Br)c2)CCC1 | -2.65% |
| NS(=O)(=O)CCNC(=O)c1ccc(-c2ccc(F)cc2)cc1F | -6.9% |
| O=C(CCCn1cncn1)NC1(c2ccccc2)CCC1 | -4.44% |
| CC(C)OCCOCc1cccc(NC(=O)NCc2ccccn2)c1 | -8.39% |
| COc1ccc(C(NCc2ccc(C#N)cc2)C2CC2)cc1 (stereo not drawn) | -7.6% |
| COc1cccc(-c2c[nH]c(C3CCCN3)n2)c1 (stereo not drawn) | -4.68% |
| COc1ccccc1-c1c[nH]c(C2CCCN2)n1 (stereo not drawn) | -7.74% |
